Active and inactive are the calls of the source. How the calls were made is not given here.

Data on ten molecules can be found in PubChem BioAssay AID1259407 (Chemical Carcinogenesis Research Information System (CCRIS), 2018).

This series concerns CCRIS mutagenicity, Ames/micronucleus/aberration tests. The series can be described thus: CCRIS mutagenicity studies.
Setting [1] is: Test System: AMES SALMONELLA TYPHIMURIUM, Strain/Indicator: TA98(1,8-DNP6), Metabolic Activation: NONE, Method: STANDARD PLATE.
Setting [2] is: Test System: AMES SALMONELLA TYPHIMURIUM, Strain/Indicator: TA98, Metabolic Activation: NONE, Method: STANDARD PLATE.
Setting [3] is: Test System: AMES SALMONELLA TYPHIMURIUM, Strain/Indicator: TA98, Metabolic Activation: RAT, LIVER, S-9, AROCLOR 1254, Method: STANDARD PLATE.
The mark [4] stands for this setting: Test System: AMES SALMONELLA TYPHIMURIUM, Strain/Indicator: TA100, Metabolic Activation: NONE, Method: STANDARD PLATE.
Setting [5] is: Test System: AMES SALMONELLA TYPHIMURIUM, Strain/Indicator: TA100, Metabolic Activation: RAT, LIVER, S-9, AROCLOR 1254, Method: STANDARD PLATE.
Where [6] appears, read: Test System: AMES SALMONELLA TYPHIMURIUM, Strain/Indicator: TA98, Metabolic Activation: NONE, Method: PREINCUBATION
Where [7] appears, read: Test System: AMES SALMONELLA TYPHIMURIUM, Strain/Indicator: TA100, Metabolic Activation: NONE, Method: PREINCUBATION
Setting [8] is: Test System: AMES SALMONELLA TYPHIMURIUM, Strain/Indicator: TA100, Metabolic Activation: RAT, LIVER, S-9, PCB, Method: PREINCUBATION

Consider `O=[N+]([O-])c1ccc2ccc3c4c(cc5ccc1c2c53)C=CCC4`, for which the mutagenic call is, setting by setting: under setting [1], “active; positive”; (Test System: AMES SALMONELLA TYPHIMURIUM, Strain/Indicator: TA98(1,8-DNP6), Metabolic Activation: RAT, LIVER, S-9, AROCLOR 1254, Method: STANDARD PLATE) “active; positive”; (Test System: AMES SALMONELLA TYPHIMURIUM, Strain/Indicator: TA98(NR), Metabolic Activation: NONE, Method: STANDARD PLATE) “active; positive”; (Test System: AMES SALMONELLA TYPHIMURIUM, Strain/Indicator: TA98(NR), Metabolic Activation: RAT, LIVER, S-9, AROCLOR 1254, Method: STANDARD PLATE) “active; positive”; under setting [2], “active; positive”; under setting [3], “active; positive”. The mutagenic call under setting [4] is “active; positive” and the mutagenic call under setting [5] is “active; positive”.

`CC(C)OC(=O)c1cc(NC(=S)OC(C)C)ccc1Cl`: the mutagenic call is, setting by setting: (Test System: Mouse lymphoma, Strain/Indicator: L5178Y (tk+/tk-), Metabolic Activation: None, Method: Suspension/plate) “inactive; negative”; (Test System: Mouse lymphoma, Strain/Indicator: L5178Y (tk+/tk-), Metabolic Activation: Rat, Liver, S-9, Aroclor 1254, Method: Suspension/plate) “inactive; negative”.

Regarding `c1cc2ccc3cc4c(c5ccc(c1)c2c35)[C@H]1O[C@H]1CC4`, where the note is “Test System: CHINESE HAMSTER V-79, Strain/Indicator: V-79/8-AZAGUANINE, Metabolic Activation: NONE, Method: STANDARD PLATE”, the mutagenic call was “active; positive”.

For the molecule `O[C@H]1C=Cc2c(ccc3cccnc23)[C@@H]1O`, the mutagenic call under setting [5] was “active; positive”.

For `CC(N)CCN` (stereo unspecified), the mutagenic call was “inactive; negative” under setting [6]; “inactive; negative” (Test System: AMES SALMONELLA TYPHIMURIUM, Strain/Indicator: TA98, Metabolic Activation: RAT, LIVER, S-9, PCB, Method: PREINCUBATION); “inactive; negative” under setting [7]; “inactive; negative” under setting [8].

Take `Nc1ccc2cc(S(=O)(=O)O)c(N=Nc3ccc(N=Nc4ccc(NCCO)cc4NCCO)cc3OCCO)c(O)c2c1`: the mutagenic call runs as follows: under setting [2], “inactive; negative”; under setting [3], “active; positive”; under setting [4], “inactive; negative”; under setting [5], “inactive; negative”; (Test System: AMES SALMONELLA TYPHIMURIUM, Strain/Indicator: TA1538, Metabolic Activation: NONE, Method: STANDARD PLATE) “inactive; negative”; (Test System: AMES SALMONELLA TYPHIMURIUM, Strain/Indicator: TA1538, Metabolic Activation: RAT, LIVER, S-9, AROCLOR 1254, Method: STANDARD PLATE) “active; positive”.

For the molecule `Cc1ccc(CO)cc1`, the mutagenic call runs as follows: (Test System: AMES SALMONELLA TYPHIMURIUM, Strain/Indicator: TA97, Metabolic Activation: HAMSTER, LIVER, S-9, AROCLOR 1254 (10%), Method: PREINCUBATION) “inactive; negative”; (Test System: AMES SALMONELLA TYPHIMURIUM, Strain/Indicator: TA97, Metabolic Activation: HAMSTER, LIVER, S-9, AROCLOR 1254 (30%), Method: PREINCUBATION) “inactive; negative”; (Test System: AMES SALMONELLA TYPHIMURIUM, Strain/Indicator: TA97, Metabolic Activation: NONE, Method: PREINCUBATION) “inactive; negative”; (Test System: AMES SALMONELLA TYPHIMURIUM, Strain/Indicator: TA97, Metabolic Activation: RAT, LIVER, S-9, AROCLOR 1254 (10%), Method: PREINCUBATION) “inactive; negative”; (Test System: AMES SALMONELLA TYPHIMURIUM, Strain/Indicator: TA97, Metabolic Activation: RAT, LIVER, S-9, AROCLOR 1254 (30%), Method: PREINCUBATION) “inactive; negative”; (Test System: AMES SALMONELLA TYPHIMURIUM, Strain/Indicator: TA98, Metabolic Activation: HAMSTER, LIVER, S-9, AROCLOR 1254 (10%), Method: PREINCUBATION) “inactive; negative”. Also, the mutagenic call is, setting by setting: (Test System: AMES SALMONELLA TYPHIMURIUM, Strain/Indicator: TA98, Metabolic Activation: HAMSTER, LIVER, S-9, AROCLOR 1254 (30%), Method: PREINCUBATION) “inactive; negative”; under setting [6], “inactive; negative”; (Test System: AMES SALMONELLA TYPHIMURIUM, Strain/Indicator: TA98, Metabolic Activation: RAT, LIVER, S-9, AROCLOR 1254 (10%), Method: PREINCUBATION) “inactive; negative”; (Test System: AMES SALMONELLA TYPHIMURIUM, Strain/Indicator: TA98, Metabolic Activation: RAT, LIVER, S-9, AROCLOR 1254 (30%), Method: PREINCUBATION) “inactive; negative”; (Test System: AMES SALMONELLA TYPHIMURIUM, Strain/Indicator: TA100, Metabolic Activation: HAMSTER, LIVER, S-9, AROCLOR 1254 (10%), Method: PREINCUBATION) “inactive; negative”; (Test System: AMES SALMONELLA TYPHIMURIUM, Strain/Indicator: TA100, Metabolic Activation: HAMSTER, LIVER, S-9, AROCLOR 1254 (30%), Method: PREINCUBATION) “inactive; negative”. Besides, the mutagenic call is, setting by setting: under setting [7], “inactive; negative”; under setting [4], “inactive; negative”; (Test System: AMES SALMONELLA TYPHIMURIUM, Strain/Indicator: TA100, Metabolic Activation: RAT, LIVER, S-9, AROCLOR 1254 (10%), Method: PREINCUBATION) “inactive; negative”; (Test System: AMES SALMONELLA TYPHIMURIUM, Strain/Indicator: TA100, Metabolic Activation: RAT, LIVER, S-9, AROCLOR 1254 (30%), Method: PREINCUBATION) “inactive; negative”; (Test System: AMES SALMONELLA TYPHIMURIUM, Strain/Indicator: TA1535, Metabolic Activation: HAMSTER, LIVER, S-9, AROCLOR 1254 (10%), Method: PREINCUBATION) “inactive; negative”; (Test System: AMES SALMONELLA TYPHIMURIUM, Strain/Indicator: TA1535, Metabolic Activation: HAMSTER, LIVER, S-9, AROCLOR 1254 (30%), Method: PREINCUBATION) “inactive; negative”. Moreover, the mutagenic call was “inactive; negative” (Test System: AMES SALMONELLA TYPHIMURIUM, Strain/Indicator: TA1535, Metabolic Activation: NONE, Method: PREINCUBATION); “inactive; negative” (Test System: AMES SALMONELLA TYPHIMURIUM, Strain/Indicator: TA1535, Metabolic Activation: RAT, LIVER, S-9, AROCLOR 1254 (10%), Method: PREINCUBATION); “inactive; negative” (Test System: AMES SALMONELLA TYPHIMURIUM, Strain/Indicator: TA1535, Metabolic Activation: RAT, LIVER, S-9, AROCLOR 1254 (30%), Method: PREINCUBATION); “inactive; negative” (Test System: AMES SALMONELLA TYPHIMURIUM, Strain/Indicator: TA1537, Metabolic Activation: HAMSTER, LIVER, S-9, AROCLOR 1254 (30%), Method: PREINCUBATION); “inactive; negative” (Test System: AMES SALMONELLA TYPHIMURIUM, Strain/Indicator: TA1537, Metabolic Activation: NONE, Method: PREINCUBATION); “inactive; negative” (Test System: AMES SALMONELLA TYPHIMURIUM, Strain/Indicator: TA1537, Metabolic Activation: RAT, LIVER, S-9, AROCLOR 1254 (30%), Method: PREINCUBATION).

As for `COc1c(O)c(OC)c(Cl)c(Cl)c1Cl`, the mutagenic call (Test System: CHINESE HAMSTER V-79, Strain/Indicator: V-79/6-THIOGUANINE, Metabolic Activation: NONE, Method: STANDARD PLATE) is “inactive; negative”.

Take `Cn1c(N=[N+]=[N-])nc2ccc3ccccc3c21`: the mutagenic call was “active; positive” under setting [1] and “active; positive” under setting [2].

Take `C[C@H](CN=[N+]=[N-])c1ccccc1`: the mutagenic call runs as follows: under setting [7], “inactive; negative”; under setting [8], “active; positive”.
